According to US20230138393A1, “LINKING AMINO ACID SEQUENCES, MANUFACTURING METHOD THEREOF, AND USE THEREOF” (priority 2020, published 2023):
Entries after “also recorded” stand apart in the source; their conditions may differ. [ ]: non-standard residue; d: D form. The star is where a group is joined. FITC = O=C1OC2(c3ccc(O)cc3Oc3cc(O)ccc32)c2ccc(NC(=S)*)cc21; Dap = NC[C@H](N)C(=O)O

Experiments:
MYST2 = MYST2 (Homo sapiens, UniProt O95251); assay: Acetyltransferase assay with acetyl-CoA analogs and H4 (1-20) peptide (MS); conditions: MYST2 with H4 (1-20) peptide, mass spectrometric analysis
MYST2, sequence (O95251 whole entry): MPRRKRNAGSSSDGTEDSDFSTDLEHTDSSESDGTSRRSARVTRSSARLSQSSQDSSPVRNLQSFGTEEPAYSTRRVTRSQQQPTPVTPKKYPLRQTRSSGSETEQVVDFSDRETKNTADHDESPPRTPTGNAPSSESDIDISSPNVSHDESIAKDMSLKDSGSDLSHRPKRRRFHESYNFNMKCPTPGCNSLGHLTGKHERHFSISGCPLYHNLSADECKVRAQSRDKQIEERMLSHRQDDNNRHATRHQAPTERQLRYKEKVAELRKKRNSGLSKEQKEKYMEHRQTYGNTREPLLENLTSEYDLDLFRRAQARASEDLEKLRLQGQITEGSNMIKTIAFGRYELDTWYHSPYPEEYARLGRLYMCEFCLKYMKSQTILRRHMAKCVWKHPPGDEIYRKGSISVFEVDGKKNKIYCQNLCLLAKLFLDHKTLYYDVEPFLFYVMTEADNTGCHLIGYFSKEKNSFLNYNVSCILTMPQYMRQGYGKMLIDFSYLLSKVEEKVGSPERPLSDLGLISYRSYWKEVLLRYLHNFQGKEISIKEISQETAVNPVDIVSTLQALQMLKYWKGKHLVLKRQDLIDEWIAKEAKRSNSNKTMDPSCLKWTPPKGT

[1] = Hydrolysis of acetyl CoA and fluoroacetyl CoA (DTNB); assay type: physicochemical; conditions: 10 μM, 100 mM Tris buffer (pH 7.2)
Experimental: Hydrolysis of Acetyl CoA and Fluoroacetyl CoA: The hydrolysis rate of acetyl-CoA and fluoroacetyl CoA were measured in a similar manner to reported procedures (Weeks A M et al., 2010, Biochemistry, 49:9269-9279; Wagner G R et al., 2017, Cell Metab., 25:823-837). Briefly, 10 μM of the acetyl or fluoroacetyl CoA was incubated in 100 mM Tris buffer mixed with 0.5 mM DTNB, pH 7.2. The increase in the solution's absorbance at 412 nm was recorded, as a result of the reaction between DTNB and the free thiol in the released CoA hydrolysis product. A CoA standard curve was generated by measuring the absorbance of serially diluted CoA stock (200 μM) in the same assay buffer.

GCN5 = GCN5 (Homo sapiens, UniProt Q92831); assay: Acetyltransferase assay with acetyl-CoA analogs and H3 (1-20) peptide (MS); conditions: GCN5 with H3 (1-20) peptide, mass spectrometric analysis
GCN5, sequence (Q92831 492-658 limits assumed): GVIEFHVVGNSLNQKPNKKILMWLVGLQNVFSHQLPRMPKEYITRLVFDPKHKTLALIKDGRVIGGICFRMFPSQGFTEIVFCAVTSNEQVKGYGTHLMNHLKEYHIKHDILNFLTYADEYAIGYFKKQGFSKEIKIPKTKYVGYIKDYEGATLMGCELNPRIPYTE

TIP60 = TIP60 (Homo sapiens, UniProt Q92993); assay: Acetyltransferase assay with acetyl-CoA analogs and H4 (1-20) peptide (MS); conditions: TIP60 with H4 (1-20) peptide, mass spectrometric analysis
TIP60, sequence (Q92993 whole entry): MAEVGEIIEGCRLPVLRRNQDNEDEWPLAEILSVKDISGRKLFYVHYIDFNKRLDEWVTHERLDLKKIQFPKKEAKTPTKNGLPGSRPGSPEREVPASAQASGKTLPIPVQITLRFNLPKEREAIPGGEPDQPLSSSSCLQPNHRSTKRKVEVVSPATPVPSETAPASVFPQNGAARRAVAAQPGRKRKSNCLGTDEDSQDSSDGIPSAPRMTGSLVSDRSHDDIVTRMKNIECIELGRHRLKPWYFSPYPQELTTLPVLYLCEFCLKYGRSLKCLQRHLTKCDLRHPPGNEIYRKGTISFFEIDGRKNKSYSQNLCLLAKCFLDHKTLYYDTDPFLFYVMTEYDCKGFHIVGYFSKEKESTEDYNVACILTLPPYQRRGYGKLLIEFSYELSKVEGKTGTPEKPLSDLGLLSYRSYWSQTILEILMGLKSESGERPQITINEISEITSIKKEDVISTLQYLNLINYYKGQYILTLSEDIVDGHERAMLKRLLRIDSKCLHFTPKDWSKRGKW

[2] = Stability and reactivity of model substrates and probes in cell lysates; conditions: human, pH 8.5
[3] = Bioorthogonality of the fluorine-thiol displacement reaction: incubation with glutathione or cysteine (1H NMR); assay type: physicochemical; conditions: 25 mM each, pH 8.5, 37° C., 24 h
Experimental: Bioorthogonality of the Fluorine-Thiol Displacement Reaction (FIG. 30) The common substrate 2-fluoro-N-phenethylacetamide (compound (3)) was dissolved in MeOD as a 10× stock solution (250 mM). Sixty microliter of the stock was mixed with another 60 μL of either the reduced glutathione or cysteine 10× stock solution (250 mM in D2O). The mixture was added with additional deuterated solvents (1:1 mix of deuterated sodium phosphate buffer and MeOD) to make a final volume of 600 μL (pH adjusted to 8.5). The resulting solution was incubated at 37° C. water bath for 24 h, and then analyzed by ^1H NMR spectroscopy.

[4] = Measurement of FTDR reaction kinetics; assay type: physicochemical; conditions: DMF/Tris buffer (70/30), pH 8.5, 37° C.; 40, 80, 160 mM; average of three experiments
Experimental: Measurement of Reaction Kinetics: Reaction kinetics were evaluated similarly to reported procedures (Addy P S et al., 2017, J. Am. Chem. Soc., 139:11670-11673; Sundhoro M et al., 2017, Angew. Chem. Int. Ed. Engl., 56:12117-12121.). Stock solutions of substrate (3) and nucleophiles were prepared in DMF, while TCEP stock (pH 7.4) was dissolved in H2O. Equal concentrations (40 mM, 80 mM, or 160 mM) of the substrate and the nucleophile (3,4,5-trimethoxybenzenethiol or 2,4,6-trimethoxybenzenethiol) were mixed in 40 μL of DMF/Tris buffer (70/30). Over excess amount of TCEP (100 mM, 200 mM, or 400 mM) was added, and the final pH of the mixture was adjusted to 8.5 to initiate the reaction at 37° C. Time dependent measurements were carried out by taking 2 μL of the reaction mixture at indicated time points (30 min, 60 min, 90 min, 120 min, 150 min, 180 min), and mixing it with 18 μL 0.5% TFA/ACN to quench the reaction. The samples were eventually analyzed by LC/MS and the concentrations of product and reactant were determined by comparing peak area ratios with those of the standard curves. […]; t: reaction time; [X]t: concentration of either reactant at time t).

in vitro = conditions: human, pH 8.5
DLD-1 cells [5] = conditions: then 10 μM peptide 4 h; for Mean Intensity Ratio, no pathway blocker: DLD-1 cells pretreated with solvent vehicle only, normalized as 1; for Mean Intensity Ratio, Chlorpromazine / Mean Intensity Ratio, Cytochalasin D / Mean Intensity Ratio, Nystatin / Mean Intensity Ratio, NaClO3: DLD-1 cells, ratio to no blocker; for Mean Intensity Ratio, Chlorpromazine: 1 h 5 μg/mL chlorpromazine (clathrin-dependent endocytosis); for Mean Intensity Ratio, Cytochalasin D: 1 h 10 μg/mL cytochalasin D (actin polymerization); for Mean Intensity Ratio, Nystatin: 1 h 25 μg/mL nystatin (caveolin-mediated endocytosis); for Mean Intensity Ratio, NaClO3: 1 h 80 mM NaClO3 (proteoglycan synthesis)
Experimental: Images were analyzed with NIH ImageJ software. […] Particles in the extracellular matrix that the “analyze particle” function selected were manually deselected and removed from the data set (FIG. 58B).
After this, the FITC-labelled peptide analogues were added at a final concentration of 10 μM, and the mixture was incubated at 37° C./5% CO2 for 4 h. […] After another round of washing, cells were imaged in the buffer as aforementioned. Subsequent CellTiter-Glo viability measurements were also performed right after confocal imaging.

DLD-1 cells [6] = conditions: 10 μM, 12 h
Experimental: Cell Viability Assay: Wild type DLD-1 cells were cultured in complete growth media (RPMI, 10% FBS and 1% penicillin/streptomycin) at 37° C./5% CO2. After harvesting, cells were placed onto 96-well flat bottom white plates at 10e4 cells/well, and were incubated overnight. […] The chemiluminescent signals from the control sample (treated with 0 μM peptides) were used as the 100% control. […] For DLD-1 cells, after confocal imaging for the penetration pathway studies, viability measurements were carried out similarly via directly mixing with the CellTiter-Glo reagent. Cells treated with vehicle groups were also analyzed and counted as the 100% control.

DLD-1 cells [7] = assay: Cell penetration assay of FITC-labelled Axin analogues (confocal imaging); assay type: cell-based; conditions: for cellular uptake by confocal fluorescence microscopy (in words): 10 μM; for Mean Intensity Ratio (cell penetration): 10 μM FITC-labelled peptide, 12 h, intracellular intensity of peptide 51 normalized as 1
Experimental: Cell Penetration Assay: DLD-1 cells were seeded on 35 mm optical dishes at 3e5 per well and were incubated overnight at 37° C./5% CO2. […] Cells were imaged in buffer mimicking the physiological conditions in the cytoplasm (20 mM HEPES, 110 mM KOAc, 5 mM NaOAc, 2 mM MgOAc, 1 mM EGTA, pH 7.3).

[8] = biological target: T1, beta-catenin protein (Abcam, ab63175) (UniProt P35222 1-781, limits assumed); assay: ELISA; beta-catenin coated on plate
T1 construct: Bought protein coated on the ELISA plate; also called β-catenin; target protein β-catenin
T1 sequence (looked up): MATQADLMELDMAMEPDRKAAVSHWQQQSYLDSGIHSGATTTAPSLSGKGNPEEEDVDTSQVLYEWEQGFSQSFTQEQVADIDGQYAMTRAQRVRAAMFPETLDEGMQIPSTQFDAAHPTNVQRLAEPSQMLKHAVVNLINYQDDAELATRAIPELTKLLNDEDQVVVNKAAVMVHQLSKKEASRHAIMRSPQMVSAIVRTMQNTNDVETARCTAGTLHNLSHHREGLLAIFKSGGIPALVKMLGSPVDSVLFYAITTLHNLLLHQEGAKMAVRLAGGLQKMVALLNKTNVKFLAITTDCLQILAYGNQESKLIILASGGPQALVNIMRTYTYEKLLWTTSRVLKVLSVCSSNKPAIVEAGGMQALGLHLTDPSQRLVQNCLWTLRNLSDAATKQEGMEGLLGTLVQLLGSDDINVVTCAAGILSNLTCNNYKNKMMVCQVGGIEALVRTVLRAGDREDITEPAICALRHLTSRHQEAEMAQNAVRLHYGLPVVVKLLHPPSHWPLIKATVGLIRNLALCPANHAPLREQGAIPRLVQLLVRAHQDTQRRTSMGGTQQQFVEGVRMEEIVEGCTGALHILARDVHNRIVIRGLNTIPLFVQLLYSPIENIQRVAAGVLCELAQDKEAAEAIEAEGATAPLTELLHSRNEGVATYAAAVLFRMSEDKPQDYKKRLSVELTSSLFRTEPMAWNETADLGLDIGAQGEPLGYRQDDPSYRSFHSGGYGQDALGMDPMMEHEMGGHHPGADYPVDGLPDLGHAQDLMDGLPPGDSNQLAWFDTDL

Molecule: CC(=O)SCCNC(=O)CCNC(=O)[C@H](O)C(C)(C)COP(=O)(O)OP(=O)(O)OC[C@H]1O[C@@H](n2cnc3c(N)ncnc32)[C@H](O)[C@@H]1OP(=O)(O)O [Ac-CoA, acetyl-CoA]
- labelling of histone peptide substrate by acetyltransferase (MYST2): successful acetyl or acetyl analog labelling
- pseudo-first-order rate constant of hydrolysis [1]: 0.0002 s⁻¹
- labelling of histone peptide substrate by acetyltransferase (GCN5): successful acetyl or acetyl analog labelling
- labelling of histone peptide substrate by acetyltransferase (TIP60): successful acetyl or acetyl analog labelling

Molecule: CC(C)(COP(=O)(O)OP(=O)(O)OCC1OC(n2cnc3c(N)ncnc32)C(O)C1OP(=O)(O)O)[C@@H](O)C(=O)NCCC(=O)NCCSC(=O)CF (stereo partly shown) [F-Ac-CoA, fluoroacetyl-CoA]
- labelling of histone peptide substrate by acetyltransferase (MYST2): successful acetyl or acetyl analog labelling
- pseudo-first-order rate constant of hydrolysis [1]: 0.0075 s⁻¹
- labelling of histone peptide substrate by acetyltransferase (GCN5): successful acetyl or acetyl analog labelling
- labelling of histone peptide substrate by acetyltransferase (TIP60): successful acetyl or acetyl analog labelling

Molecule: O=C(CF)NCCc1ccccc1 [Peptide 3]
- recovery at 14 h, 1 mM [2]: 100%
- reactivity with cysteine [3]: no reaction was observed; also recorded: stable
- reactivity with glutathione [3]: no reaction was observed; also recorded: stable

Molecule: C#CCCC(=O)SCCNC(=O)CCNC(=O)[C@H](O)C(C)(C)COP(=O)(O)OP(=O)(O)OCC1OC(n2cnc3c(N)ncnc32)C(O)C1OP(=O)(O)O (stereo partly shown) [Peptide 4-PY-CoA, 4-pentynoyl CoA]
- labelling of histone peptide substrate by acetyltransferase (MYST2): failed to incorporate
- labelling of histone peptide substrate by acetyltransferase (GCN5): failed to incorporate
- labelling of histone peptide substrate by acetyltransferase (TIP60): failed to incorporate

Molecule: COc1cc(S)cc(OC)c1OC [Peptide 12]
- second order rate constant of FTDR reaction with (3) (2-fluoro-N-phenethylacetamide) [4]: (0.37±0.06)×10^−3 M^−1 S^−1

Molecule: COc1cc(OC)c(S)c(OC)c1 [Peptide 13]
- second order rate constant of FTDR reaction with (3) (2-fluoro-N-phenethylacetamide) [4]: (1.03±0.06)×10^−3 M^−1 S^−1
- recovery at 14 h, 1 mM (in vitro): 61.8%

Molecule: CC[C@H](C)[C@@H]1NC(=O)[C@@H](NC(=O)[C@H](CCC(N)=O)NC(=O)[C@@H]2CCCN2C(=O)[C@H](Cc2c[nH]c3ccccc23)NC(=O)[C@H](CCCNC(=N)N)NC(=O)COCCOCCNC(=S)Nc2ccc3c(c2)C(=O)OC32c3ccc(O)cc3Oc3cc(O)ccc32)CNC(=O)CSCc2cccc(c2)CSCC(=O)NC[C@@H](C(=O)N[C@@H](Cc2c[nH]cn2)C(=O)N[C@H](C(=O)N[C@@H](CCCNC(=N)N)C(=O)N[C@@H](CCCNC(=N)N)C(=O)N[C@H](C(=O)N[C@@H](Cc2c[nH]c3ccccc23)C(=O)N[C@@H](CCCNC(=N)N)C(N)=O)C(C)C)C(C)C)NC(=O)[C@H](CC(=O)O)NC(=O)[C@H](CC(C)C)NC1=O [Peptide 48]
- Mean Intensity Ratio, no pathway blocker (DLD-1 cells [5]): 1.00 ± 0.04
- Mean Intensity Ratio, Chlorpromazine (DLD-1 cells [5]): 0.13 ± 0.01
- Mean Intensity Ratio, Cytochalasin D (DLD-1 cells [5]): 0.10 ± 0.01
- Mean Intensity Ratio, Nystatin (DLD-1 cells [5]): 1.16 ± 0.03
- Mean Intensity Ratio, NaClO3 (DLD-1 cells [5]): 0.12 ± 0.01
- effect on cell viability (DLD-1 cells [6]): did not affect the viability
- cellular uptake by confocal fluorescence microscopy (in words) (DLD-1 cells [7]): significant cellular uptake
- Mean Intensity Ratio (cell penetration) (DLD-1 cells [7]): 4.86±0.15

Molecule: CC[C@H](C)[C@@H]1NC(=O)[C@@H](NC(=O)[C@H](CCC(N)=O)NC(=O)[C@@H]2CCCN2C(=O)[C@H](Cc2c[nH]c3ccccc23)NC(=O)[C@H](CCCNC(=N)N)NC(=O)COCCOCCNC(=S)Nc2ccc3c(c2)C(=O)OC32c3ccc(O)cc3Oc3cc(O)ccc32)CNC(=O)CSCc2cccc(c2)CSCC(=O)NC[C@H](C(=O)N[C@@H](Cc2c[nH]cn2)C(=O)N[C@H](C(=O)N[C@@H](CCCNC(=N)N)C(=O)N[C@@H](CCCNC(=N)N)C(=O)N[C@H](C(=O)N[C@@H](Cc2c[nH]c3ccccc23)C(=O)N[C@@H](CCCNC(=N)N)C(N)=O)C(C)C)C(C)C)NC(=O)[C@H](CC(=O)O)NC(=O)[C@H](CC(C)C)NC1=O [Peptide 50]
- Mean Intensity Ratio, no pathway blocker (DLD-1 cells [5]): 1.00 ± 0.02
- Mean Intensity Ratio, Chlorpromazine (DLD-1 cells [5]): 0.16 ± 0.01
- Mean Intensity Ratio, Cytochalasin D (DLD-1 cells [5]): 0.99 ± 0.02
- Mean Intensity Ratio, Nystatin (DLD-1 cells [5]): 0.17 ± 0.01
- Mean Intensity Ratio, NaClO3 (DLD-1 cells [5]): 0.20 ± 0.01
- effect on cell viability (DLD-1 cells [6]): did not affect the viability
- cellular uptake by confocal fluorescence microscopy (in words) (DLD-1 cells [7]): significant cellular uptake
- Mean Intensity Ratio (cell penetration) (DLD-1 cells [7]): 5.05±0.14

B1: FITC labelled fluoroacetamide containing L,L substrate (47), unstapled Axin-derived peptide analogue (peptide)
peptide: {FITC}-RWPQ[Dap](fluoroacetyl)ILD[Dap](fluoroacetyl)HVRRVWR-NH2
notes: also called peptide (47); unstapled peptide (47)
- EC50 [8]: ~300 nM
